In BigSolDB 2.1:

c1ccc(CSSCc2ccccc2)cc1
Conditions	solubility (mole fraction)
in chloroform, 284.95 K	0.102
in chloroform, 288.75 K	0.131
in chloroform, 292.75 K	0.16
in chloroform, 298.65 K	0.208
in chloroform, 302.6 K	0.246
in chloroform, 308.15 K	0.291
in ethanol, 284.7 K	0.000168
in ethanol, 289.45 K	0.000398
in ethanol, 294.45 K	0.000905
in ethanol, 299.55 K	0.0019
in ethanol, 303.25 K	0.00301
in ethanol, 308.25 K	0.00524
in ethyl acetate, 285.55 K	0.0332
in ethyl acetate, 289.95 K	0.05
in ethyl acetate, 293.65 K	0.0667
in ethyl acetate, 298.8 K	0.0963
in ethyl acetate, 303.65 K	0.131
in ethyl acetate, 308.4 K	0.164
in n-hexane, 284.25 K	0.000922
in n-hexane, 288.35 K	0.0019
in n-hexane, 294.45 K	0.00448
in n-hexane, 298.25 K	0.00739
in n-hexane, 303.65 K	0.0137
in n-hexane, 309.05 K	0.0223
in toluene, 283.45 K	0.0521
in toluene, 288.16 K	0.0769
in toluene, 292.65 K	0.103
in toluene, 299.35 K	0.162
in toluene, 303.15 K	0.198
in toluene, 308.65 K	0.248
